US12678498B2, “FGFR/PD-1 combination therapy for the treatment of cancer” (ASTEX THERAPEUTICS LTD, priority 2015, dated 2026)

Columns and labels:
[1] = system: peripheral blood mononuclear cells (PBMCs) from normal donors; test: Immune cell viability of PBMCs by CellTiter-Glo; assay type: cell-based; conditions: increasing concentrations up to 1 μM, days 1, 2, 5 and 6
Protocol: To determine the effects of JNJ427564493 on immune cell viability in vitro, peripheral blood mononuclear cells (PBMCs) from normal donors were stimulated with anti-CD3 antibodies to activate T cells, in the presence of increasing concentrations of JNJ42756493. Unstimulated PBMCs were also included to determine if JNJ42756493 affected unactivated immune populations. Cell viability was assessed at four different time points, over 6 days.

[2] = system: PBMCs from CMV-reactive donors stimulated with CMV antigen; test: Cytomegalovirus antigen assay (CMV), IFN-γ in supernatant by MSD; assay type: cell-based; conditions: JNJ42756493 alone at 100, 1 or 0.01 nM; 6 days after treatment
Protocol: FIG. 5 illustrates the effect of JNJ42756493 on IFN-γ levels induced by anti-PD-1 antibodies in a Cytomegalovirus antigen assay (CMV) Assay. Peripheral blood mononuclear cells (PMBCs) were stimulated with CMV antigen and treated with anti-PD-1 antibodies (concentration left to right—30, 10, 3.33, 1.11, 0.37, 0.12 nM) as indicated. JNJ42756493 was added at 100, 1, or 0.01 nM alone (concentrations left to right), together with anti-PD-1 antibodies (100, 1, or 0.01 nM JNJ42756493 together with 30, 10, 3.33, 1.11, 0.37, or 0.12 nM of anti-PD-1 antibody), or in the presence of isotype control (IC). 6 days after treatment, IFN-γ levels in the supernatant were measured by MSD.
In the CMV assay, PBMCs from CMV-reactive donors were stimulated by the addition of CMV antigen. CMV-reactive T cells are active, expand and secrete pro-inflammatory cytokines such as IFN-γ. […] In contrast, JNJ42756493 alone had no impact on cytokine levels (FIG. 5, JNJ-493 alone).

COc1cc(OC)cc(N(CCNC(C)C)c2ccc3ncc(-c4cnn(C)c4)nc3c2)c1 [JNJ42756493, N-(3,5-dimethoxyphenyl)-N′-(1-methylethyl)-N-[3-(1-methyl-1H-pyrazol-4-yl)quinoxalin-6-yl]ethane-1,2-diamine]
cell viability (luminescence signal) ([1]; PBMCs stimulated with anti-CD3 antibodies): remained constant | cell viability (luminescence signal) ([1]; unstimulated PBMCs): remained constant | cytokine (IFN-γ) levels [2]: no impact
